Test results: US20220062268A1, “PHARMACEUTICAL COMPOSITION FOR THE TREATMENT OF PARKINSON'S DISEASE” (Teva Pharmaceuticals International GmbH, priority 2014, published 2022)
“Also recorded” adds a separate entry of the source. Like-named read-outs stand apart in the source and are kept apart here.

Legend:
[1] = system: MPTP monkey model of Parkinson's disease; assay: MPTP monkey model of Parkinson's disease: tremor and Good ON; type: in vivo, Macaca fascicularis; conditions: MPTP macaques; DP-102 versus same dose of L-DOPA; tremor score summed over 3 hours post dose; FIG. 1
Method: Macaques (Macaca fascicularis) were rendered parkinsonian by repeated daily injections of MPTP hydrochloride (0.2 mg/kg, i.v.) until parkinsonian signs appeared. The degree of parkinsonism was assessed using a validated parkinsonian macaque clinical scale which rates the following symptoms of parkinsonian disability: tremor (0-3), variations in the general level of activity (0-3), body posture (flexion of spine; 0-3), vocalization (0-2), freezing (0-2), frequency of arm movements (reaching for food, 0-3 for each upper limb), and rigidity (0-3 for each upper limb).
The maximum parkinsonian disability score was 25. MPTP administration was stopped when a score of 6 was reached on the above scale (usually day 13-17). The macaques were left untreated, for a minimum of 6 weeks, until their parkinsonism became stable.
This study assessed the test item in a within-subject design with an intra-individually escalating dosage regimen.
Eight animals were randomly assigned to one of two treatment sequence groups (1: AB, 2: BA). […]
Tremor was assessed for 3 hours post L-DOPA administration for 10 minutes every 30 minutes, by post hoc analysis of video recordings by a trained assessor blinded to the study treatments. […]
The anti-parkinsonian action was evaluated based upon the “ON” state of the animals. […]

Parkinson models = conditions: cited from earlier work
striatal dopamine = conditions: compared to L-DOPA, cited from earlier work
late Parkinson's disease = conditions: cited from earlier work
[2] = neutral pH; cited from earlier work

[2H]C([2H])(c1ccc(O)c(O)c1)[C@]([2H])(N)C(=O)O [DP-102, L-2-Amino-2,3,3-trideutero-3-(3,4-dihydroxyphenyl) propionic acid]
tremor in relation to Good ON [1]: less tremor at more Good ON
equi-effective dose compared to L-DOPA (Parkinson models; in vivo): about 60%
motor activity (Parkinson models; several Parkinson models, compared to L-DOPA): improved motor activity compared to L-DOPA
striatal dopamine levels (striatal dopamine; listed as α,β,β-D3-L-DOPA): higher longer-lasting striatal dopamine levels than L-DOPA; also recorded: increase and prolong the output of striatal dopamine significantly more than L-DOPA

CN1CCc2cccc3c2[C@H]1Cc1ccc(O)c(O)c1-3 [apomorphine]
dose of oral L-DOPA under infused apomorphine (late Parkinson's disease; daily dose of infused apomorphine 72.00±21.38 mg, reduced from 989.4±420.1 mg/day (Ruiz et al.)): 663.8 ± 403.2 mg/day
reduction of L-DOPA (late Parkinson's disease; mean daily apomorphine dose of 75.2 mg (Katzenschlager et al.)): 55%

N[C@@H](Cc1ccc(O)c(O)c1)C(=O)O [L-DOPA, (2S)-2-amino-3-(3,4-dihydroxyphenyl)propanoic acid, reference compound]
tremor in relation to Good ON [1]: higher or observed at lower Good ON levels
solubility [2]: poorly dissolved at neutral pH

[2H][C@@H](c1ccc(O)c(O)c1)[C@]([2H])(N)C(=O)O [α,β-D2-L-DOPA, S/S-2-amino-2,3-dideutero-3-(3,4-dihydroxyphenyl) propionic acid]
striatal dopamine levels (striatal dopamine): increase and prolong the output of striatal dopamine significantly more than L-DOPA; also recorded: highest striatal dopamine concentrations
